Results as given in patent publication US20240116985A1, “STAPLED PEPTIDES AND METHODS THEREOF” (priority 2020, published 2024).

Tests used:
[1] = target: T1, full-length beta-Catenin (Uniprot ID P35222) (Homo sapiens, UniProt P35222); experiment: Fluorescence polarization IC50 (beta-catenin / 5FAM-TCF4 10-53 competition); format: binding; conditions: fluorescence polarization; read-out: beta-Catenin FP IC50
T1 construct: 10 nM full-length beta-Catenin (Uniprot ID P35222)
T1 sequence (P35222 1-781): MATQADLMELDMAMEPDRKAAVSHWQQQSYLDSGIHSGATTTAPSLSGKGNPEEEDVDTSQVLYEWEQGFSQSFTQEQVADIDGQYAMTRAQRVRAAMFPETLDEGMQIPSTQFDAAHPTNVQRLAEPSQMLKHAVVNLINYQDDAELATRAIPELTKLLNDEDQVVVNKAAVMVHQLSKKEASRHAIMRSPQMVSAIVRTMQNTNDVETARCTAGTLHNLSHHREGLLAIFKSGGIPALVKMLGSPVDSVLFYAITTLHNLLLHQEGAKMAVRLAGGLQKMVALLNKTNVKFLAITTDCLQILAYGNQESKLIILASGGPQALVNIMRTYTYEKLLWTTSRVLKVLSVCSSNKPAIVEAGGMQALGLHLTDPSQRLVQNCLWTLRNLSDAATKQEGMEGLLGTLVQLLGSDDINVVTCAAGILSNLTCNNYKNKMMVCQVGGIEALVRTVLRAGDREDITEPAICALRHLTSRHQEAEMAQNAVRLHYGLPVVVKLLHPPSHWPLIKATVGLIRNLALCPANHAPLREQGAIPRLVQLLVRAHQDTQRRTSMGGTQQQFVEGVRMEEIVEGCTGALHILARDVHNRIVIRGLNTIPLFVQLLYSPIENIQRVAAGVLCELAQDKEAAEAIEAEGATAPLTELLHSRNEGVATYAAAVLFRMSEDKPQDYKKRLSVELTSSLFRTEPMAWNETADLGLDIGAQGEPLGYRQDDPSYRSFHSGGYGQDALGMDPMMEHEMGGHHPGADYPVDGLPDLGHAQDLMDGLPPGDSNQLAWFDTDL

[2] = target: T2, beta-catenin/TCF4 engagement (Homo sapiens, UniProt P35222); experiment: Nano-BRET target engagement assay (B-cat-Halo & TCF4-Luc in HEK293 cells); format: cell-based; conditions: read-out: NanoBRET Abs IC50
T2 construct: expressed in transfected cells; host or cells: HEK293
T2 sequence (P35222 1-781): T1 sequence (P35222 1-781)

Structure (SMILES)	IC50 [1] [nM]	IC50 [2] [µM]
CC(=O)N1CCC[C@]12CC=CCCCC1(CCCC=CCCCOC(=O)N3CC[C@@](C(=O)N[C@@H](Cc4ccsc4)C(=O)N[C@@H](Cc4csc5ccccc45)C(=O)N[C@@H](CCC(N)=O)C(N)=O)(C3)NC(=O)[C@H](CC(N)=O)NC(=O)[C@H](Cc3ccccc3)NC(=O)[C@H](C)NC(=O)[C@H](C)NC(=O)[C@H](CCCNC(=N)N)NC(=O)[C@H](CC(=O)O)NC1=O)NC(=O)[C@H](CC(C)(C)C)NC(=O)[C@H](CC(=O)O)NC2=O (stereo partly drawn) [I-1890, Ac-PL3-Asp-Npg-B5-Asp-Arg-Ala-Ala-Phe-Asn-PyrS2-3Thi-BztA-Gln-NH2]	31	> 20
CC(=O)N1CCC[C@]12CC=CCCCC1(CCCC=CCCCOC(=O)N3CC[C@@](C(=O)N[C@@H](Cc4ccsc4)C(=O)N[C@@H](Cc4csc5ccccc45)C(=O)N[C@@H](CCC(N)=O)C(N)=O)(C3)NC(=O)[C@H](CC(N)=O)NC(=O)[C@H](Cc3ccccc3)NC(=O)[C@H](C)NC(=O)[C@H](C)NC(=O)[C@H](CCCNC(=N)N)NC(=O)[C@H](CC(=O)O)NC1=O)NC(=O)[C@H](CC(C)(C)C)NC(=O)[C@H](CC(=O)O)NC2=O (stereo partly drawn) [I-1891, Ac-PL3-Asp-Npg-B5-Asp-Arg-Ala-Ala-Phe-Asn-PyrS2-3Thi-BztA-Gln-NH2]	40	> 20
CC(=O)N1CCC[C@]12CC=CCCCC1(CCCC=CCCCOC(=O)N3CC[C@@](C(=O)N[C@@H](CC4CCC4)C(=O)N[C@@H](Cc4csc5ccccc45)C(=O)N[C@@H](CO)C(N)=O)(C3)NC(=O)[C@H](CC(C)C)NC(=O)[C@H](Cc3ccccc3)NC(=O)[C@H](C)NC(=O)[C@H](C)NC(=O)[C@H](Cc3cccc(C(=O)O)c3)NC(=O)[C@H](CC(=O)O)NC1=O)NC(=O)[C@H](CC(C)(C)C)NC(=O)[C@H](CC(=O)O)NC2=O (stereo partly drawn) [I-1898, Ac-PL3-Asp-Npg-B5-Asp-3COOHF-Ala-Ala-Phe-Leu-PyrS2-Cba-BztA-Ser-NH2]	22	10.9
CC(=O)N1CCC[C@]12CC=CCCCC1(CCCC=CCCCOC(=O)N3CC[C@@](C(=O)N[C@@H](Cc4ccccc4Cl)C(=O)N[C@@H](Cc4csc5ccccc45)C(=O)N[C@@H](CO)C(N)=O)(C3)NC(=O)[C@H](CC(C)C)NC(=O)[C@H](Cc3ccccc3)NC(=O)[C@H](C)NC(=O)C(C)(C)NC(=O)[C@H](Cc3cccc(C(=O)O)c3)NC(=O)[C@H](CC(=O)O)NC1=O)NC(=O)[C@H](CC(C)(C)C)NC(=O)[C@H](CC(=O)O)NC2=O (stereo partly drawn) [I-1899, Ac-PL3-Asp-Npg-B5-Asp-3COOHF-Aib-Ala-Phe-Leu-PyrS2-2C1F-BztA-Ser-NH2]	28	5.1
CC(=O)N1CCC[C@]12CC=CCCCC1(CCCC=CCCCOC(=O)N3CC[C@@](C(=O)N[C@@H](Cc4ccccc4Cl)C(=O)N[C@@H](Cc4csc5ccccc45)C(=O)N[C@@H](CO)C(N)=O)(C3)NC(=O)[C@H](CC(C)C)NC(=O)[C@H](Cc3ccccc3)NC(=O)[C@H](C)NC(=O)C(C)(C)NC(=O)[C@H](Cc3cccc(C(=O)O)c3)NC(=O)[C@H](CC(=O)O)NC1=O)NC(=O)[C@H](CC(C)(C)C)NC(=O)[C@H](CC(=O)O)NC2=O (stereo partly drawn) [I-1900, Ac-PL3-Asp-Npg-B5-Asp-3COOHF-Aib-Ala-Phe-Leu-PyrS2-2C1F-BztA-Ser-NH2]	136	> 20
CC(=O)N1CCC[C@]12CC=CCCCC1(CCCC=CCCCOC(=O)N3CC[C@@](C(=O)N[C@@H](Cc4ccccc4Cl)C(=O)N[C@@H](Cc4csc5ccccc45)C(=O)N[C@@H](CO)C(N)=O)(C3)NC(=O)[C@H](CC(C)C)NC(=O)[C@H](Cc3ccccc3)NC(=O)[C@H](C)NC(=O)[C@H](CO)NC(=O)[C@H](Cc3cccc(C(=O)O)c3)NC(=O)[C@H](CC(=O)O)NC1=O)NC(=O)[C@H](CC(C)(C)C)NC(=O)[C@H](CC(=O)O)NC2=O (stereo partly drawn) [I-1901, Ac-PL3-Asp-Npg-B5-Asp-3COOHF-Ser-Ala-Phe-Leu-PyrS2-2C1F-BztA-Ser-NH2]	34	4.9
CC(=O)N1CCC[C@]12CC=CCCCC1(CCCC=CCCCOC(=O)N3CC[C@@](C(=O)N[C@@H](Cc4ccccc4Cl)C(=O)N[C@@H](Cc4csc5ccccc45)C(=O)N[C@@H](CO)C(N)=O)(C3)NC(=O)[C@H](CC(C)C)NC(=O)[C@H](Cc3ccccc3)NC(=O)[C@H](C)NC(=O)[C@H](CO)NC(=O)[C@H](Cc3cccc(C(=O)O)c3)NC(=O)[C@H](CC(=O)O)NC1=O)NC(=O)[C@H](CC(C)(C)C)NC(=O)[C@H](CC(=O)O)NC2=O (stereo partly drawn) [I-1902, Ac-PL3-Asp-Npg-B5-Asp-3COOHF-Ser-Ala-Phe-Leu-PyrS2-2C1F-BztA-Ser-NH2]	28	7.7
CC(=O)N1CCC[C@]12CC=CCCCC1(CCCC=CCCCOC(=O)N3CC[C@@](C(=O)N[C@@H](Cc4ccccc4Cl)C(=O)N[C@@H](Cc4csc5ccccc45)C(=O)N[C@@H](CO)C(N)=O)(C3)NC(=O)[C@H](CO)NC(=O)[C@H](Cc3ccccc3)NC(=O)[C@H](C)NC(=O)[C@H](C)NC(=O)[C@H](Cc3cccc(C(=O)O)c3)NC(=O)[C@H](CC(=O)O)NC1=O)NC(=O)[C@H](CC(C)(C)C)NC(=O)[C@H](CC(=O)O)NC2=O (stereo partly drawn) [I-1903, Ac-PL3-Asp-Npg-B5-Asp-3COOHF-Ala-Ala-Phe-Ser-PyrS2-2C1F-BztA-Ser-NH2]	14	6.4
CC(=O)N1CCC[C@]12CC=CCCCC1(CCCC=CCCCOC(=O)N3CC[C@@](C(=O)N[C@@H](Cc4ccccc4Cl)C(=O)N[C@@H](Cc4csc5ccccc45)C(=O)N[C@@H](CO)C(=O)N[C@H](CO)[C@@H](C)O)(C3)NC(=O)[C@H](CC(C)C)NC(=O)[C@H](Cc3ccccc3)NC(=O)[C@H](C)NC(=O)[C@H](C)NC(=O)[C@H](Cc3cccc(C(=O)O)c3)NC(=O)[C@H](CC(=O)O)NC1=O)NC(=O)[C@H](CC(C)(C)C)NC(=O)[C@H](CC(=O)O)NC2=O (stereo partly drawn) [I-1905, Ac-PL3-Asp-Npg-B5-Asp-3COOHF-Ala-Ala-Phe-Leu-PyrS2-2C1F-BztA-Ser-Thro1]	20	9.7
CC(=O)N1CCC[C@]12CC=CCCCC1(CCCC=CCCCOC(=O)N3CC[C@@](C(=O)N[C@@H](Cc4ccccc4Cl)C(=O)N[C@@H](Cc4csc5ccccc45)C(=O)N[C@@H](CO)C(=O)N4CCC[C@H]4CO)(C3)NC(=O)[C@H](CC(C)C)NC(=O)[C@H](Cc3ccccc3)NC(=O)[C@H](C)NC(=O)[C@H](C)NC(=O)[C@H](Cc3cccc(C(=O)O)c3)NC(=O)[C@H](CC(=O)O)NC1=O)NC(=O)[C@H](CC(C)(C)C)NC(=O)[C@H](CC(=O)O)NC2=O (stereo partly drawn) [I-1906, Ac-PL3-Asp-Npg-B5-Asp-3COOHF-Ala-Ala-Phe-Leu-PyrS2-2C1F-BztA-Ser-Prool]	23	15.5
CC(=O)N1CCC[C@]12CC=CCCCC1(CCCC=CCCCOC(=O)N3CC[C@@](C(=O)N[C@@H](Cc4ccsc4)C(=O)N[C@@H](Cc4csc5ccccc45)C(=O)N[C@@H](Cc4ccccc4)C(N)=O)(C3)NC(=O)[C@H](CC(C)C)NC(=O)[C@H](Cc3ccccc3)NC(=O)[C@H](C)NC(=O)[C@H](CCCCNC(C)C)NC(=O)[C@H](Cc3cccc(C(=O)O)c3)NC(=O)[C@H](CC(=O)O)NC1=O)NC(=O)[C@H](CC(C)(C)C)NC(=O)[C@H](CC(=O)O)NC2=O (stereo partly drawn) [I-1909, Ac-PL3-Asp-Npg-B5-Asp-3COOHF-iPrLys-Ala-Phe-Leu-PyrS2-3Thi-BztA-Phe-NH2]	29	> 20
CC(=O)N1CCC[C@]12CC=CCCCC1(CCCC=CCCCOC(=O)N3CC[C@@](C(=O)N[C@@H](Cc4ccsc4)C(=O)N[C@@H](Cc4csc5ccccc45)C(=O)N[C@@H](Cc4ccccc4)C(N)=O)(C3)NC(=O)[C@H](CC(C)C)NC(=O)[C@H](Cc3ccccc3)NC(=O)[C@H](C)NC(=O)[C@H](CCCCN)NC(=O)[C@H](Cc3cccc(C(=O)O)c3)NC(=O)[C@H](CC(=O)O)NC1=O)NC(=O)[C@H](CC(C)(C)C)NC(=O)[C@H](CC(=O)O)NC2=O (stereo partly drawn) [I-1911, Ac-PL3-Asp-Npg-B5-Asp-3COOHF-Lys-Ala-Phe-Leu-PyrS2-3Thi-BztA-Phe-NH2]	38	> 20
CC(=O)N1CCC[C@]12CC=CCCCC1(CCCC=CCCCOC(=O)N3CC[C@@](C(=O)N[C@@H](Cc4ccsc4)C(=O)N[C@@H](Cc4csc5ccccc45)C(=O)N[C@@H](Cc4ccccc4)C(N)=O)(C3)NC(=O)[C@H](CC(C)C)NC(=O)[C@H](Cc3ccccc3)NC(=O)[C@H](C)NC(=O)[C@H](CCC(N)=O)NC(=O)[C@H](Cc3cccc(C(=O)O)c3)NC(=O)[C@H](CC(=O)O)NC1=O)NC(=O)[C@H](CC(C)(C)C)NC(=O)[C@H](CC(=O)O)NC2=O (stereo partly drawn) [I-1912, Ac-PL3-Asp-Npg-B5-Asp-3COOHF-Gln-Ala-Phe-Leu-PyrS2-3Thi-BztA-Phe-NH2]	13	11.5
CCCC[C@@H]1NC(=O)[C@H](Cc2cccc(C(=O)O)c2)NC(=O)[C@H](CC(=O)O)NC(=O)C2(CCCC=CCCCOC(=O)N3CC[C@@](C(=O)N[C@@H](Cc4ccsc4)C(=O)N[C@@H](Cc4csc5ccccc45)C(=O)N[C@@H](Cc4ccccc4)C(N)=O)(C3)NC(=O)[C@H](CC(C)C)NC(=O)[C@H](Cc3ccccc3)NC(=O)[C@H](C)NC1=O)CCCC=CC[C@]1(CCCN1C(C)=O)C(=O)N[C@@H](CC(=O)O)C(=O)N[C@@H](CC(C)(C)C)C(=O)N2 (stereo partly drawn) [I-1913, Ac-PL3-Asp-Npg-B5-Asp-3COOHF-nLeu-Ala-Phe-Leu-PyrS2-3Thi-BztA-Phe-NH2]	119	17.5
